According to ChEMBL document CHEMBL5303573, “Mapping human microbiome drug metabolism by gut bacteria and their genes” (Nature, 2019):

Assays:
[1] = The drug is tested on Bifidobacterium breve strain: DSM20213 for biotransformation. The drug concentrations were measured before and after a 12-h incubation by liquid-chromatography-coupled mass spectrometry (LC–MS); conditions: 2 µM
[2] = The drug is tested on Bacteroides caccae strain: ATCC43185 for biotransformation. The drug concentrations were measured before and after a 12-h incubation by liquid-chromatography-coupled mass spectrometry (LC–MS); conditions: 2 µM
[3] = The drug is tested on Bacteroides finegoldii strain: DSM17565 for biotransformation. The drug concentrations were measured before and after a 12-h incubation by liquid-chromatography-coupled mass spectrometry (LC–MS); conditions: 2 µM
[4] = The drug is tested on Bacteroides fragilis strain: HMW615 for biotransformation. The drug concentrations were measured before and after a 12-h incubation by liquid-chromatography-coupled mass spectrometry (LC–MS); conditions: 2 µM
[5] = The drug is tested on Bacteroides fragilis strain: ATCC43859 for biotransformation. The drug concentrations were measured before and after a 12-h incubation by liquid-chromatography-coupled mass spectrometry (LC–MS); conditions: 2 µM
[6] = The drug is tested on Bacteroides ovatus strain: ATCC8483 for biotransformation. The drug concentrations were measured before and after a 12-h incubation by liquid-chromatography-coupled mass spectrometry (LC–MS); conditions: 2 µM
[7] = The drug is tested on Parabacteroides merdae strain: ATCC43184 for biotransformation. The drug concentrations were measured before and after a 12-h incubation by liquid-chromatography-coupled mass spectrometry (LC–MS); conditions: 2 µM
[8] = The drug is tested on Anaerococcus hydrogenalis strain: DSM7454 for biotransformation. The drug concentrations were measured before and after a 12-h incubation by liquid-chromatography-coupled mass spectrometry (LC–MS); conditions: 2 µM
[9] = The drug is tested on Blautia hansenii strain: DSM20583 for biotransformation. The drug concentrations were measured before and after a 12-h incubation by liquid-chromatography-coupled mass spectrometry (LC–MS); conditions: 2 µM
[10] = The drug is tested on Clostridium ramosum strain: DSM1402 for biotransformation. The drug concentrations were measured before and after a 12-h incubation by liquid-chromatography-coupled mass spectrometry (LC–MS); conditions: thomasclavelia ramosa, 2 µM
[11] = The drug is tested on Clostridium scindens strain: ATCC35704 for biotransformation. The drug concentrations were measured before and after a 12-h incubation by liquid-chromatography-coupled mass spectrometry (LC–MS); conditions: 2 µM
[12] = The drug is tested on Clostridium symbiosum strain: ATCC14940 for biotransformation. The drug concentrations were measured before and after a 12-h incubation by liquid-chromatography-coupled mass spectrometry (LC–MS); conditions: 2 µM
[13] = The drug is tested on Dorea formicigenerans strain: ATCC27755 for biotransformation. The drug concentrations were measured before and after a 12-h incubation by liquid-chromatography-coupled mass spectrometry (LC–MS); conditions: 2 µM
[14] = The drug is tested on Enterococcus faecalis strain: V583 for biotransformation. The drug concentrations were measured before and after a 12-h incubation by liquid-chromatography-coupled mass spectrometry (LC–MS); conditions: 2 µM
[15] = The drug is tested on Eubacterium hallii strain: DSM3353 for biotransformation. The drug concentrations were measured before and after a 12-h incubation by liquid-chromatography-coupled mass spectrometry (LC–MS); conditions: anaerobutyricum hallii, 2 µM
[16] = The drug is tested on Eubacterium ventriosum strain: ATCC27560 for biotransformation. The drug concentrations were measured before and after a 12-h incubation by liquid-chromatography-coupled mass spectrometry (LC–MS); type: ADME; set-up: dose 2 uM, timepoint 0 vs 12 hours; conditions: 2 µM
[17] = The drug is tested on Enterobacter cancerogenus strain: ATCC35316 for biotransformation. The drug concentrations were measured before and after a 12-h incubation by liquid-chromatography-coupled mass spectrometry (LC–MS); conditions: 2 µM
[18] = bacteroides thetaiotaomicron, 12 h, 2 µM
Description: The drug is tested on Bacteroides thetaiotaomicron strain: VPI-5482 for biotransformation. The drug concentrations were measured before and after a 12-h incubation by liquid-chromatography-coupled mass spectrometry (LC–MS)

[19] = bacteroides thetaiotaomicron, 12 h, 2 µM; remark: listed apart in the source
Description: The drug is tested on Bacteroides thetaiotaomicron strain: 7330 for biotransformation. The drug concentrations were measured before and after a 12-h incubation by liquid-chromatography-coupled mass spectrometry (LC–MS)

[20] = enterocloster bolteae, 12 h, 2 µM
Description: The drug is tested on Clostridium bolteae strain: ATCCBAA-613 for biotransformation. The drug concentrations were measured before and after a 12-h incubation by liquid-chromatography-coupled mass spectrometry (LC–MS)

Bacterial Biotransformation [1]	Bacterial Biotransformation [2]	Bacterial Biotransformation [3]	Bacterial Biotransformation [4]	Bacterial Biotransformation [5]	Bacterial Biotransformation [6]	Bacterial Biotransformation [7]	Bacterial Biotransformation [8]	Bacterial Biotransformation [9]	Bacterial Biotransformation [10]	Bacterial Biotransformation [11]	Bacterial Biotransformation [12]	Bacterial Biotransformation [13]	Bacterial Biotransformation [14]	Bacterial Biotransformation [15]	Bacterial Biotransformation [16]	Bacterial Biotransformation [17]	Bacterial Biotransformation [18]	Bacterial Biotransformation [19]	Bacterial Biotransformation [20]	SMILES
Compound NOT metabolized	Compound NOT metabolized	Compound NOT metabolized	Compound metabolized	Compound metabolized	Compound NOT metabolized	Compound NOT metabolized	Compound NOT metabolized	Compound NOT metabolized	Compound NOT metabolized	Compound NOT metabolized	Compound NOT metabolized	Compound NOT metabolized	Compound NOT metabolized	Compound NOT metabolized	Compound NOT metabolized	Compound NOT metabolized	Compound NOT metabolized	Compound NOT metabolized	Compound NOT metabolized	CC(C)[C@H]1CC[C@H](C(=O)N[C@H](Cc2ccccc2)C(=O)O)CC1 [NATEGLINIDE]
Compound NOT metabolized	Compound NOT metabolized	Compound metabolized	Compound NOT metabolized	Compound NOT metabolized	Compound NOT metabolized	Compound NOT metabolized	Compound metabolized	Compound NOT metabolized	Compound NOT metabolized	Compound NOT metabolized	Compound NOT metabolized	Compound NOT metabolized	Compound NOT metabolized	Compound NOT metabolized	Compound NOT metabolized	Compound metabolized	Compound NOT metabolized	Compound NOT metabolized	Compound metabolized	Fc1ccc([C@@H]2CCNC[C@H]2COc2ccc3c(c2)OCO3)cc1 [PAROXETINE]

SMILES	Bacterial Biotransformation [1]	Bacterial Biotransformation [2]	Bacterial Biotransformation [3]	Bacterial Biotransformation [4]	Bacterial Biotransformation [5]	Bacterial Biotransformation [6]	Bacterial Biotransformation [7]	Bacterial Biotransformation [8]	Bacterial Biotransformation [9]	Bacterial Biotransformation [10]	Bacterial Biotransformation [11]	Bacterial Biotransformation [12]	Bacterial Biotransformation [13]	Bacterial Biotransformation [14]	Bacterial Biotransformation [15]	Bacterial Biotransformation [16]	Bacterial Biotransformation [17]	Bacterial Biotransformation [18]	Bacterial Biotransformation [19]	Bacterial Biotransformation [20]
CCCN1C[C@H](CSC)C[C@@H]2c3cccc4[nH]cc(c34)C[C@H]21.CS(=O)(=O)O [PERGOLIDE MESYLATE]	Compound NOT metabolized	Compound NOT metabolized	Compound NOT metabolized	Compound NOT metabolized	Compound NOT metabolized	Compound NOT metabolized	Compound NOT metabolized	Compound NOT metabolized	Compound NOT metabolized	Compound NOT metabolized	Compound NOT metabolized	Compound NOT metabolized	Compound NOT metabolized	Compound NOT metabolized	Compound NOT metabolized	Compound NOT metabolized	Compound NOT metabolized	Compound NOT metabolized	Compound NOT metabolized	Compound NOT metabolized
